{"source": "patent US8710043B2", "about": "“TRPM8 antagonists and their use in treatments” (Amgen Inc., priority 2011, dated 2014)", "molecular_target": "T1, human TRPM8 (Homo sapiens, UniProt Q7Z2W7)", "T1 construct": "expressed in transfected cells; host or cells: Chinese hamster ovary (CHO) cells, T-REx tetracycline-inducible system, co-transfected with aequorin", "T1 sequence (Q7Z2W7 whole entry)": "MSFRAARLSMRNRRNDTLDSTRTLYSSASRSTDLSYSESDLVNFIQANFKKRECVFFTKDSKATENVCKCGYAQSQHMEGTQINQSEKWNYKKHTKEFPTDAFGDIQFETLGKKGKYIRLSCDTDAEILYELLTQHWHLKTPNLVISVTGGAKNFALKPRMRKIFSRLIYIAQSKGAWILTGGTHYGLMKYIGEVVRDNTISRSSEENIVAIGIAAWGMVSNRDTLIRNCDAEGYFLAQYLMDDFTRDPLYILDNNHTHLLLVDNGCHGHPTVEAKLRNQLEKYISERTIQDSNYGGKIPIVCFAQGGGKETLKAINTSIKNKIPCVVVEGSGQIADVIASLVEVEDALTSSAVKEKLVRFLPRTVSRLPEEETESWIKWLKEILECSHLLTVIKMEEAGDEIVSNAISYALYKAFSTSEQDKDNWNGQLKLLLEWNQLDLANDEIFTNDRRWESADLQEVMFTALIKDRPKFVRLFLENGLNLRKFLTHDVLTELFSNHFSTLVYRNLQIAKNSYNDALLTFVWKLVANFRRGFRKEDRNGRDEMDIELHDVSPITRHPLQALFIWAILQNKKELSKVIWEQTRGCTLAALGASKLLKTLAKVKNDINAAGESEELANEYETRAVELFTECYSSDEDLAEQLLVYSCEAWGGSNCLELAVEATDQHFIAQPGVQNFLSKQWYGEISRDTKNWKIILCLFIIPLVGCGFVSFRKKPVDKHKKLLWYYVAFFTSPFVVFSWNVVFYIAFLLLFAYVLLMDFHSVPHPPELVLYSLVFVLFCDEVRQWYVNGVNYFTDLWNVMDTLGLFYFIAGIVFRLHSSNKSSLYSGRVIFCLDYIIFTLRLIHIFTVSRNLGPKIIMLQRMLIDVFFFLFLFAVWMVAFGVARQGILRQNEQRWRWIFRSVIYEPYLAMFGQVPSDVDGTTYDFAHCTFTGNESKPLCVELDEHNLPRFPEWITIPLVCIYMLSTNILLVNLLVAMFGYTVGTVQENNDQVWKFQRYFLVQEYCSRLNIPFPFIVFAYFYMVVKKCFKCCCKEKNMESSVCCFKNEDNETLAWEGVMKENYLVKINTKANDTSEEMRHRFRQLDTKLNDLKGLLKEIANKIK", "assay": "Luminescence readout assay for measuring intracellular calcium, icilin activation", "format": "cell-based", "settings": "CHO cells expressing human TRPM8, aequorin luminescence, 1 μM icilin activation; read-out: hTRPM8 IC50", "method_in_brief": "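The read-out was luminescence reporting intracellular calcium, recorded by a CCD-based luminometer. Compounds were preincubated for 2.5 min before agonist challenge with 1 μM icilin. Human TRPM8 was expressed in a stable T-REx CHO line, induced with 0.5 μg/mL tetracycline the day before.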", "data": [{"smiles": "O=C(N[C@@H](c1ccc(C(F)(F)F)cc1)c1ncccc1C(F)(F)F)c1cccc(C(F)(F)F)c1", "note": "[Example 211, (S)-3-(trifluoromethyl)-N-((4-(trifluoromethyl)phenyl)(3-(trifluoromethyl)pyridin-2-yl)methyl)benzamide]", "values": [{"measurement": "IC50", "result": 115, "unit": "nM"}]}, {"smiles": "CC(=O)Oc1ccc(C(=O)N[C@@H](c2ccc(C(F)(F)F)cc2)c2ncccc2C(F)(F)F)cc1", "note": "[Example 174, (S)-4-(((4-(trifluoromethyl)phenyl)(3-trifluoromethyl)methyl)carbamoyl)phenyl acetate]", "values": [{"measurement": "IC50", "result": 22.9, "unit": "nM"}]}, {"smiles": "Cc1ccnn1CC(=O)N[C@@H](c1ccc(C(F)(F)F)cc1)c1ncccc1C(F)(F)F", "note": "[Example 153, (S)-2-(5-methyl-1H-pyrazol-1-yl)-N-((4-(trifluoromethyl)phenyl)(3-(trifluoromethyl)pyridin-2-yl)methyl)acetamide]", "values": [{"measurement": "IC50", "result": 373, "unit": "nM"}]}, {"smiles": "Cn1cc(C(=O)N[C@@H](c2ccc(F)c(F)c2)c2ncccc2F)ccc1=O", "note": "[Example 332, (S)-N-((3,4-difluorophenyl)(3-fluoropyridin-2-yl)methyl)-1-methyl-6-oxo-1,6-dihydropyridine-3-carboxamide]", "values": [{"measurement": "IC50", "result": 268, "unit": "nM"}]}, {"smiles": "O=C(N[C@@H](c1ccc(C(F)(F)F)cc1)c1ncccc1F)c1cc2n(n1)CCCO2", "note": "[Example 320, (S)-N-((3-fluoropyridin-2-yl)(4-(trifluoromethyl)phenyl)methyl)-6,7-dihydro-5H-pyrazolo[5,1-b][1,3]oxazine-2-carboxamide]", "values": [{"measurement": "IC50", "result": 132, "unit": "nM"}]}, {"smiles": "O=C(N[C@@H](c1ccc(C(F)(F)F)cc1)c1ncccc1F)c1n[nH]c2c1CCCC2", "note": "[Example 322, (S)-N-((3-fluoropyridin-2-yl)(4-(trifluoromethyl)phenyl)methyl)-4,5,6,7-tetrahydro-1H-indazole-3-carboxamide]", "values": [{"measurement": "IC50", "result": 202, "unit": "nM"}]}, {"smiles": "O=C(N[C@@H](c1ccc(C(F)(F)F)cc1)c1ncccc1F)c1ccc[nH]c1=O", "note": "[Example 72, (S)-N-((3-fluoropyridin-2-yl)(4-(trifluoromethyl)phenyl)methyl)-2-oxo-1,2-dihydropyridine-3-carboxamide]", "values": [{"measurement": "IC50", "result": 167, "unit": "nM"}]}, {"smiles": "O=C1COc2cc(C(=O)N[C@@H](c3ccc(OC(F)(F)F)cc3)c3ncccc3F)ccc2N1", "note": "[Example 81]", "values": [{"measurement": "IC50", "result": 24.8, "unit": "nM"}]}, {"smiles": "O=C(N[C@@H](c1ccc(C(F)(F)F)cc1)c1ncccc1F)c1ccn2nnnc2c1", "note": "[Example 308, (S)-N-((3-fluoropyridin-2-yl)(4-(trifluoromethyl)phenyl)methyl)tetrazolo[1,5-a]pyridine-7-carboxamide]", "values": [{"measurement": "IC50", "result": 26.9, "unit": "nM"}]}, {"smiles": "O=C(N[C@@H](c1ccc(OC(F)(F)F)cc1)c1ncccc1F)c1ccn2ccnc2c1", "note": "[Example 88, (S)-N-((3-fluoropyridin-2-yl)(4-(trifluoromethoxy)phenyl)methyl)imidazo[1,2-a]pyridine-7-carboxamide]", "values": [{"measurement": "IC50", "result": 12.1, "unit": "nM"}]}, {"smiles": "O=C(N[C@@H](c1ccc(C(F)(F)F)cc1)c1ncccc1C(F)(F)F)c1ccc2c(Cl)ccnc2c1", "note": "[Example 110, (S)-4-chloro-N-((4-(trifluoromethyl)phenyl)(3-(trifluoromethyl)pyridin-2-yl)methyl)quinoline-7-carboxamide 2,2,2-trifluoroacetate]", "values": [{"measurement": "IC50", "result": 64.4, "unit": "nM"}]}, {"smiles": "O=C(N[C@@H](C#Cc1ccccc1)c1ncccc1C(F)(F)F)c1ccc2cccnc2c1", "note": "[Example 261, (S)-N-(3-phenyl-1-(3-(trifluoromethyl)pyridin-2-yl)prop-2-yn-1-yl)quinoline-7-carboxamide]", "values": [{"measurement": "IC50", "result": 375, "unit": "nM"}]}, {"smiles": "Cn1ccnc1C(=O)N[C@@H](c1ccc(OC(F)(F)F)c(F)c1)c1ncccc1F", "note": "[Example 387, (S)-N-((3-fluoro-4-(trifluoromethoxy)phenyl)(3-fluoropyridin-2-yl)methyl)-1-methyl-1H-imidazole-2-carboxamide 2,2,2-trifluoroacetate]", "values": [{"measurement": "IC50", "result": 279, "unit": "nM"}]}, {"smiles": "Cc1cc([C@H](NC(=O)c2ccc(=O)[nH]c2)c2ncccc2F)cc(C(F)(F)F)c1", "note": "[Example 333, (S)-N-((3-fluoropyridin-2-yl)(3-methyl-5-(trifluoromethyl)phenyl)methyl)-6-oxo-l,6-dihydropyridine-3-carboxamide]", "values": [{"measurement": "IC50", "result": 658, "unit": "nM"}]}]}
